# ChEMBL document CHEMBL3885861, “Open TG-GATES”
# Species: Rattus norvegicus
# Experiment: Open TG-GATES - Regimen: Single
# Assay type: toxicity, organism-based, Sprague-Dawley
# Parameters: regimen Single, gender Male, age 6 weeks
# Conditions: in vivo, po, 300 mg/kg, route gavage, dose level Low; for APTT / Bas / Eos / Fbg / Hb / Ht / Lym / MCH / MCHC / MCV / Mono / Neu / PT / Plat / RBC / Ret / WBC: tissue Blood; for KIDNEY_L / KIDNEY_R / KIDNEY_TOTAL: tissue Kidney; for LIVER: tissue Liver; for A/G / ALP / ALT / AST / BUN / CRE / Ca / Cl / DBIL / GLC / IP / K / LDH / Na / PL / RALB / TBIL / TC / TG / TP / gamma-GTP: tissue Plasma
structure (smiles),measurement,setting,value
CCN1CCCC1CNC(=O)c1cc(S(N)(=O)=O)ccc1OC (configuration not stated) [SULPIRIDE],TERMINAL_BW,3 h,202.3 g
same,APTT,3 h,16.9 s
same,Bas,3 h,0%
same,Eos,3 h,0.8%
same,Fbg,3 h,268.2 mg/dL
same,Hb,3 h,12.9 g/dL
same,Ht,3 h,40.1%
same,Lym,3 h,83%
same,MCH,3 h,20.5 pg
same,MCHC,3 h,32.3%
same,MCV,3 h,63.3 fL
same,Mono,3 h,2.6%
same,Neu,3 h,12.6%
same,PT,3 h,13.5 s
same,Plat,3 h,123.5 x10_4/uL
same,RBC,3 h,633 x10_4/ul
same,Ret,3 h,8.1%
same,WBC,3 h,80.2 x10_2/uL
same,KIDNEY_L,3 h,0.9 g
same,KIDNEY_R,3 h,0.9 g
same,KIDNEY_TOTAL,3 h,1.9 g
same,LIVER,3 h,9.4 g
same,A/G,3 h,0.9
same,ALP,3 h,1455.4 IU/L
same,ALT,3 h,35.6 IU/L
same,AST,3 h,72.8 IU/L
same,BUN,3 h,9.8 mg/dL
same,CRE,3 h,0.2 mg/dL
same,Ca,3 h,11.1 mg/dL
same,Cl,3 h,105.8 meq/L
same,DBIL,3 h,0.004 mg/dL
same,GLC,3 h,173 mg/dL
same,IP,3 h,8.2 mg/dL
same,K,3 h,4.2 meq/L
same,LDH,3 h,124.4 IU/L
same,Na,3 h,141.6 meq/L
same,PL,3 h,143.4 mg/dL
same,RALB,3 h,2.5 g/dL
same,TBIL,3 h,0.062 mg/dL
same,TC,3 h,77.8 mg/dL
same,TG,3 h,74.2 mg/dL
same,TP,3 h,5.2 g/dL
same,gamma-GTP,3 h,1.6 IU/L
same,TERMINAL_BW,6 h,199.9 g
same,APTT,6 h,16.7 s
same,Bas,6 h,0%
same,Eos,6 h,1%
same,Fbg,6 h,287.4 mg/dL
same,Hb,6 h,13.1 g/dL
same,Ht,6 h,41.1%
same,Lym,6 h,78%
same,MCH,6 h,20.5 pg
same,MCHC,6 h,31.9%
same,MCV,6 h,64.2 fL
same,Mono,6 h,2.8%
same,Neu,6 h,17.4%
same,PT,6 h,13.5 s
same,Plat,6 h,122.9 x10_4/uL
same,RBC,6 h,641.2 x10_4/ul
same,Ret,6 h,8.4%
same,WBC,6 h,95.5 x10_2/uL
same,KIDNEY_L,6 h,0.9 g
same,KIDNEY_R,6 h,0.9 g
same,KIDNEY_TOTAL,6 h,1.8 g
same,LIVER,6 h,8.9 g
same,A/G,6 h,0.9
same,ALP,6 h,1332.4 IU/L
same,ALT,6 h,36.4 IU/L
same,AST,6 h,68.4 IU/L
same,BUN,6 h,9.6 mg/dL
same,CRE,6 h,0.2 mg/dL
same,Ca,6 h,11 mg/dL
same,Cl,6 h,104.8 meq/L
same,DBIL,6 h,0.01 mg/dL
same,GLC,6 h,179.4 mg/dL
same,IP,6 h,9.4 mg/dL
same,K,6 h,4.3 meq/L
same,LDH,6 h,125.8 IU/L
same,Na,6 h,141.2 meq/L
same,PL,6 h,137.6 mg/dL
same,RALB,6 h,2.5 g/dL
same,TBIL,6 h,0.074 mg/dL
same,TC,6 h,75.4 mg/dL
same,TG,6 h,59 mg/dL
same,TP,6 h,5.2 g/dL
same,gamma-GTP,6 h,1.2 IU/L
same,TERMINAL_BW,9 h,198.2 g
same,APTT,9 h,16.3 s
same,Bas,9 h,0.2%
same,Eos,9 h,0.8%
same,Fbg,9 h,287.2 mg/dL
same,Hb,9 h,13.3 g/dL
same,Ht,9 h,41%
same,Lym,9 h,77.4%
same,MCH,9 h,20.6 pg
same,MCHC,9 h,32.3%
same,MCV,9 h,63.7 fL
same,Mono,9 h,2.4%
same,Neu,9 h,19%
same,PT,9 h,13.4 s
same,Plat,9 h,129.5 x10_4/uL
same,RBC,9 h,644.4 x10_4/ul
same,Ret,9 h,7.6%
same,WBC,9 h,83.6 x10_2/uL
same,KIDNEY_L,9 h,0.9 g
same,KIDNEY_R,9 h,0.9 g
same,KIDNEY_TOTAL,9 h,1.8 g
same,LIVER,9 h,7.7 g
same,A/G,9 h,0.9
same,ALP,9 h,1287.4 IU/L
same,ALT,9 h,34.4 IU/L
same,AST,9 h,70.4 IU/L
same,BUN,9 h,7.4 mg/dL
same,CRE,9 h,0.1 mg/dL
same,Ca,9 h,10.4 mg/dL
same,Cl,9 h,106.8 meq/L
same,DBIL,9 h,0 mg/dL
same,GLC,9 h,168.4 mg/dL
same,IP,9 h,9.9 mg/dL
same,K,9 h,3.7 meq/L
same,LDH,9 h,116.4 IU/L
same,Na,9 h,142.6 meq/L
same,PL,9 h,118.4 mg/dL
same,RALB,9 h,2.5 g/dL
same,TBIL,9 h,0.07 mg/dL
same,TC,9 h,70 mg/dL
same,TG,9 h,29.8 mg/dL
same,TP,9 h,5.2 g/dL
same,gamma-GTP,9 h,1.2 IU/L
same,TERMINAL_BW,24 h,215.3 g
same,APTT,24 h,17.5 s
same,Bas,24 h,0.2%
same,Eos,24 h,1%
same,Fbg,24 h,305 mg/dL
same,Hb,24 h,13.5 g/dL
same,Ht,24 h,41.4%
same,Lym,24 h,78%
same,MCH,24 h,20.9 pg
same,MCHC,24 h,32.6%
same,MCV,24 h,64.1 fL
same,Mono,24 h,2.6%
same,Neu,24 h,17.4%
same,PT,24 h,12.7 s
same,Plat,24 h,130.7 x10_4/uL
same,RBC,24 h,646 x10_4/ul
same,Ret,24 h,7%
same,WBC,24 h,93.3 x10_2/uL
same,KIDNEY_L,24 h,0.9 g
same,KIDNEY_R,24 h,0.9 g
same,KIDNEY_TOTAL,24 h,1.8 g
same,LIVER,24 h,9.9 g
same,A/G,24 h,0.9
same,ALP,24 h,1728.6 IU/L
same,ALT,24 h,44.2 IU/L
same,AST,24 h,66.4 IU/L
same,BUN,24 h,14.8 mg/dL
same,CRE,24 h,0.2 mg/dL
same,Ca,24 h,11.1 mg/dL
same,Cl,24 h,106.4 meq/L
same,DBIL,24 h,0.014 mg/dL
same,GLC,24 h,180.4 mg/dL
same,IP,24 h,7.4 mg/dL
same,K,24 h,4.4 meq/L
same,LDH,24 h,179.2 IU/L
same,Na,24 h,141.6 meq/L
same,PL,24 h,156.2 mg/dL
same,RALB,24 h,2.7 g/dL
same,TBIL,24 h,0.064 mg/dL
same,TC,24 h,79.2 mg/dL
same,TG,24 h,134.4 mg/dL
same,TP,24 h,5.7 g/dL
same,gamma-GTP,24 h,1 IU/L
